Consider 2 compounds from paper PMC7179297, “Preclinical Antimalarial Combination Study of M5717, a Plasmodium falciparum Elongation Factor 2 Inhibitor, and Pyronaridine, a Hemozoin Formation Inhibitor” (Antimicrobial Agents and Chemotherapy, 2020).

Series [1] concerns P. falciparum eEF2 mutant parasites. Also noted: method as in PMID 26085270. The conditions noted are these: cited from earlier work.
A short description of series [2]: Pharmacokinetic analysis in blood of mice from the efficacy study. Format: in vivo. The settings on record: for AUC(0-inf) / half-life: NOD-scid IL-2Rγnull, mouse, whole blood, po; for AUC(0-inf): mean ± SD; for half-life / pharmacokinetics in combination versus single-agent treatment / half-life (t1/2): mice; for half-life / half-life (t1/2): administered alone, single oral dose; for half-life: read-out: half-life (t1/2) (converted); for pharmacokinetics in combination versus single-agent treatment: Cmax, AUC0-inf and t1/2, entries 8 to 11. Here is the method:
The test compounds’ concentrations in blood were assessed in order to determine pharmacokinetic parameters in mice from the efficacy study. Peripheral blood samples (20 μl) were sampled at different time points (1, 2, 4, 6, 24, 48, 72, 96, 168, and 216 h post treatment), mixed with 20 μl of H2O Milli Q and immediately frozen on dry ice. Samples were stored at –80°C until analysis. Blood from control mice was used for bioanalysis calibration and QC purposes. For liquid chromatography with tandem mass spectrometry (LC-MS/MS) analysis, the frozen samples were thawed and treated with two volumes equivalent of acetonitrile containing the internal standard. After centrifugation, one volume equivalent of supernatant was diluted with one volume equivalent of water containing heptafluorobutyric acid (HFBA). The extracts were analyzed by LC-MS/MS (quantification by HESI ionization in positive ion mode) performed at Swiss BioQuant AG (Switzerland). A noncompartmental analysis was performed to determine pharmacokinetic parameters using the Phoenix WinNonlin program (version 6.3).
56 Pharmacokinetic parameters
57 The pharmacokinetic analysis was performed non-compartmentally using the extravascular model. For the analysis,
58 concentrations below the LLOQ were set to 0. The following pharmacokinetic parameters of the analytes were
59 derived from the concentration-time profiles.
C0 The pre-dose concentration assumed to be 0 on the day of oral dosing.
tmax Time where the concentration in matrix is the highest.
Cmax/dose Cmax normalized to the dose of 1 mg/kg.
AUC0-t Area under the matrix concentration -time curve from 0 h to time t calculated using
the linear trapezoidal rule , using C0 as defined above.
AUC0-∞ Area under the matrix concentration -time curve from 0 h to infinity calculated using
AUC0-∞/dose AUC0-∞ normalized to a dose of 1 mg/kg.
61 Software for calculations: Phoenix WinNonlin program (version 6.3).
62 All concentration values and pharmacokinetic parameters were rounded to 3 significant digits.
63 The numbers listed for %bias and %CV were rounded to 1 decimal place.

For series [3] the following is noted: 400 mg in healthy volunteers ref 16; cited from earlier work.

Where two headings read alike, the source gives them in different places. Bounds are passed on as bounds.

Turning to `O=C(NCCN1CCCC1)c1cc(-c2ccc(CN3CCOCC3)cc2)nc2ccc(F)cc12` [M5717], the results for the IC50 fold shift in series [1] (eEF2 mutation L755F ref 7), in series [1] (eEF2 mutation P754A ref 7) and in series [1] (eEF2 mutation P754S ref 7) were 660 fold, 135 fold and 200 fold, respectively. For the same compound, the “fold shift of IC50” value in series [1] (eEF2 mutation Y186N, high-grade resistance ref 7) is > 3,000 fold. Further, the AUC(0-inf) in series [2] (3 mg/kg, M5717 3 mg/kg single oral dose (entry 1), read-out: M5717 exposure AUC0-inf) amounted to 1570 ng·h/mL; in series [2] (6 mg/kg, M5717 6 mg/kg single oral dose (entry 2), read-out: M5717 exposure AUC0-inf), 3390 ng·h/mL; in series [2] (12 mg/kg, M5717 12 mg/kg + pyronaridine 12 mg/kg single oral dose (entry 10), read-out: M5717 exposure AUC0-inf) it was 6650 ng·h/mL; in series [2] (12 mg/kg, M5717 12 mg/kg single oral dose (entry 3), read-out: M5717 exposure AUC0-inf), 6160 ng·h/mL; in series [2] (30 mg/kg, M5717 30 mg/kg single oral dose (entry 4), read-out: M5717 exposure AUC0-inf) it was 16900 ng·h/mL; in series [2] (M5717 3 mg/kg + pyronaridine 6 mg/kg single oral dose (entry 8), read-out: M5717 exposure AUC0-inf), 1360 ng·h/mL. Further, the AUC(0-inf) in series [2] (M5717 6 mg/kg + pyronaridine 36 mg/kg single oral dose (entry 11), read-out: M5717 exposure AUC0-inf) came to 2980 ng·h/mL; in series [2] (M5717 12 mg/kg + pyronaridine 6 mg/kg single oral dose (entry 9), read-out: M5717 exposure AUC0-inf), 6400 ng·h/mL. In addition, in series [2], the half-life is approximately 37 h. In addition, the “pharmacokinetics in combination versus single-agent treatment” value in series [2] is on record as “unchanged”. In addition, the “half-life (t1/2)” value in series [2] is listed as 37 h.
In the case of `COc1ccc2nc3cc(Cl)ccc3c(Nc3cc(CN4CCCC4)c(O)c(CN4CCCC4)c3)c2n1` [pyronaridine], the t1/2 in series [3] is 241 h. The AUC(0-inf) amounted to 6560 ng·h/mL in series [2] (6 mg/kg, pyronaridine 6 mg/kg single oral dose (entry 5), read-out: Pyronaridine exposure AUC0-inf); 12100 ng·h/mL in series [2] (12 mg/kg, M5717 12 mg/kg + pyronaridine 12 mg/kg single oral dose (entry 10), read-out: Pyronaridine exposure AUC0-inf); 14500 ng·h/mL in series [2] (12 mg/kg, pyronaridine 12 mg/kg single oral dose (entry 6), read-out: Pyronaridine exposure AUC0-inf); 55600 ng·h/mL in series [2] (36 mg/kg, pyronaridine 36 mg/kg single oral dose (entry 7), read-out: Pyronaridine exposure AUC0-inf); 8500 ng·h/mL in series [2] (M5717 3 mg/kg + pyronaridine 6 mg/kg single oral dose (entry 8), read-out: Pyronaridine exposure AUC0-inf); 58200 ng·h/mL in series [2] (M5717 6 mg/kg + pyronaridine 36 mg/kg single oral dose (entry 11), read-out: Pyronaridine exposure AUC0-inf). Besides, the AUC(0-inf) in series [2] (M5717 12 mg/kg + pyronaridine 6 mg/kg single oral dose (entry 9), read-out: Pyronaridine exposure AUC0-inf) was 8490 ng·h/mL. Moreover, the half-life in series [2] was approximately 74 h. Further, in series [2], the “pharmacokinetics in combination versus single-agent treatment” value is listed as “No change”. In addition, the “half-life (t1/2)” value in series [2] is recorded as 74 h.
